According to ChEMBL document CHEMBL6078658, “Use of imidazo[1,5-a]quinoline scaffold as the pharmacophore in the design of bivalent ligands of central benzodiazepine receptors” (Bioorg Med Chem, 2025):
pKi: −log10 of the molar value.

How the values were obtained:
[1] = Displacement of [3H]flumazenil from CBR at low affinity site extracted from cerebral cortex of CD-1 albino mouse incubated for 90 mins by liquid scintillation counter analysis; format: tissue-based
[2] = Displacement of [3H]flumazenil from CBR at high affinity site extracted from cerebral cortex of CD-1 albino mouse incubated for 90 mins by liquid scintillation counter analysis; format: tissue-based
[3] = molecular target: T1, GABA-A receptor; alpha-1/beta-3/gamma-2 (Homo sapiens, UniProt P14867+P18507+P28472); assay: Displacement of [3H]flumazenil from human recombinant alpha1-beta3-gamma2 GABAA receptors expressed in mouse LTK- cells incubated for 1 hr by liquid scintillation counter analysis; format: cell-based
T1 sequence (P14867 whole entry): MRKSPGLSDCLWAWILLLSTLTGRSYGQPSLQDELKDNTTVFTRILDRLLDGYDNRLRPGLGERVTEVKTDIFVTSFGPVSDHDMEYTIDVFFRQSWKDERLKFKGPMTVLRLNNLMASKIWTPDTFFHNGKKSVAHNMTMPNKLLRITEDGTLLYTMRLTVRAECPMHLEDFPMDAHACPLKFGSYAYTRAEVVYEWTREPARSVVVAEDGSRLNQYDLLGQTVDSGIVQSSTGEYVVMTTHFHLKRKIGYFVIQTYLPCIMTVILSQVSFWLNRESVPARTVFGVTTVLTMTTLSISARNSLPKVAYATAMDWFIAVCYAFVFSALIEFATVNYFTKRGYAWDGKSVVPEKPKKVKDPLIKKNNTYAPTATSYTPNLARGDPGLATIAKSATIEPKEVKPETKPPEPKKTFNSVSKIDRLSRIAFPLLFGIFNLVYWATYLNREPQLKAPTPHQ
T1 sequence (P18507 whole entry): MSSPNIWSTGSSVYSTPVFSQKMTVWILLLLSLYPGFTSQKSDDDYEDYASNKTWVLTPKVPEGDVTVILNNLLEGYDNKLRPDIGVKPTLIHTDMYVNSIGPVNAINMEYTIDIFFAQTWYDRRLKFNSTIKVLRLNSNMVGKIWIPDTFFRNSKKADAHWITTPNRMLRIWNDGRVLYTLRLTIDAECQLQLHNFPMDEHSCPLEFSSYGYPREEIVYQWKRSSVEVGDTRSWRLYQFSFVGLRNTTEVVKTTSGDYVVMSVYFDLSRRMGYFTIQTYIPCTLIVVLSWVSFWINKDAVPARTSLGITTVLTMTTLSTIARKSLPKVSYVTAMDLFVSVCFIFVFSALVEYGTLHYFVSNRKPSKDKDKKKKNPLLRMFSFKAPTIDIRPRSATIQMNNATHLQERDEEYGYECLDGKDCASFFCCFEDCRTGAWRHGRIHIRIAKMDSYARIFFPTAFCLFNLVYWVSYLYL
T1 sequence (P28472 whole entry): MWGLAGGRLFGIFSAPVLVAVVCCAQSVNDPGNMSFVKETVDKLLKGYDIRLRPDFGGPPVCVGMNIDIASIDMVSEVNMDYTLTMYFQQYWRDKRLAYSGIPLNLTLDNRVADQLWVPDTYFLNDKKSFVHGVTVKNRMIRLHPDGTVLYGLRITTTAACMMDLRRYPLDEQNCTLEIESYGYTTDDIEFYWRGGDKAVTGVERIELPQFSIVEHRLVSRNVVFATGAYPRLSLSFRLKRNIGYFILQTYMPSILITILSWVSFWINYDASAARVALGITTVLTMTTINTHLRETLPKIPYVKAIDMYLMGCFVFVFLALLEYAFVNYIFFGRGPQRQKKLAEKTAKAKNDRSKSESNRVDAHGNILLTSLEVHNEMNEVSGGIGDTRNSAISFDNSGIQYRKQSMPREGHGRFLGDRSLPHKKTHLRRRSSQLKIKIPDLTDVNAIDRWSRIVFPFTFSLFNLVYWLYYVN

[4] = molecular target: T2, GABA-A receptor; alpha-2/beta-3/gamma-2 (Homo sapiens, UniProt P18507+P28472+P47869); assay: Displacement of [3H]flumazenil from human recombinant alpha2-beta3-gamma2 GABAA receptors expressed in mouse LTK- cells incubated for 1 hr by liquid scintillation counter analysis; format: cell-based
T2 sequence (P18507 whole entry): T1 sequence (P18507 whole entry)
T2 sequence (P28472 whole entry): T1 sequence (P28472 whole entry)
T2 sequence (P47869 whole entry): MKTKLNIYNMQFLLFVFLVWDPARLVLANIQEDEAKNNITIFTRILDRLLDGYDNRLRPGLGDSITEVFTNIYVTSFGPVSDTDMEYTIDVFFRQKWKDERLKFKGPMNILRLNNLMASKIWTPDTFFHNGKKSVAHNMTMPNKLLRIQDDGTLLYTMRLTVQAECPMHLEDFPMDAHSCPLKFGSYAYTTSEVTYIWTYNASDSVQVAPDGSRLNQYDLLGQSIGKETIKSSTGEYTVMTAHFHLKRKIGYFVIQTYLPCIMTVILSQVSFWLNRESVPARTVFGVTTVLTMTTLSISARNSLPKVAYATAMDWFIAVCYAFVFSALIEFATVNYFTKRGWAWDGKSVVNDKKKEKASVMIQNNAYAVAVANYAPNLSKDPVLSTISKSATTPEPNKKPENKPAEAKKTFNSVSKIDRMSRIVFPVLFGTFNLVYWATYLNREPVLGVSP

[5] = tested on: Mus musculus; assay: Anticonvulsant activity in PTZ-treated CD-1 mouse assessed as time taken for convulsion latency at 20 mg/kg pretreated for 30 mins followed by PTZ treatment measured for 30 mins post-PTZ dose (reference value: 19.3 +/- 4.1 min); format: functional; conditions: 0.5 h
[6] = tested on: Mus musculus; assay: Anticonvulsant activity in PTZ-treated CD-1 mouse assessed as time taken for death latency at 20 mg/kg pretreated for 30 mins followed by PTZ treatment measured for 30 mins post-PTZ dose (reference value: 28.4 +/- 4.8 min); format: functional; conditions: 0.5 h
[7] = tested on: Mus musculus; assay: Anxiolytic activity in CD-1 mouse assessed as time in light at 10 mg/kg treated for 30 mins by light/dark box test (reference value: 112.1 +/- 10.9 sec); format: functional; conditions: 0.5 h
[8] = tested on: Mus musculus; assay: Anxiolytic activity in CD-1 mouse assessed as time in light at 20 mg/kg treated for 30 mins by light/dark box test (reference value: 112.1 +/- 10.9 sec); format: functional; conditions: 0.5 h
[9] = tested on: Mus musculus; assay: Myorelaxant effect in CD-1 mouse assessed as time taken for myorelaxation at 20 mg/kg, po measured immediately post-dose by rota rod test (reference value: 5.0 +/- 0.4 min); format: functional
[10] = tested on: Mus musculus; assay: Myorelaxant effect in CD-1 mouse assessed as time taken for myorelaxation at 20 mg/kg, po measured after 15 mins post-dose by rota rod test (reference value: 3.1 +/- 0.4 min); format: functional; conditions: 0.25 h
[11] = tested on: Mus musculus; assay: Myorelaxant effect in CD-1 mouse assessed as time taken for myorelaxation at 20 mg/kg, po measured after 30 mins post-dose by rota rod test (reference value: 1.6 +/- 0.0 min); format: functional; conditions: 0.5 h
[12] = tested on: Mus musculus; assay: Myorelaxant effect in CD-1 mouse assessed as time taken for myorelaxation at 20 mg/kg, po measured after 45 mins post-dose by rota rod test (reference value: 1.0 +/- 0.2 min); format: functional; conditions: 0.75 h
[13] = tested on: Mus musculus; assay: Myorelaxant effect in CD-1 mouse assessed as time taken for myorelaxation at 20 mg/kg, po measured after 60 mins post-dose by rota rod test (reference value: 0.2 +/- 0.3 min); format: functional; conditions: 1 h
[14] = tested on: Mus musculus; assay: Improvement in learning and memory in CD-1 mouse assessed as time taken for training session at 20 mg/kg, po by passive avoidance test (reference value: 15.6 +/- 3.2 sec); format: functional
[15] = tested on: Mus musculus; assay: Improvement in learning and memory in CD-1 mouse assessed as time taken for retention session at 20 mg/kg, po by passive avoidance test (reference value: 15.6 +/- 3.2 sec); format: functional
[16] = tested on: Mus musculus; assay: Improvement in learning and memory in CD-1 mouse assessed as difference in time taken for training and retention session at 20 mg/kg, po by passive avoidance test (reference value: 76.8 sec); format: functional
[17] = Displacement of [3H]flumazenil from CBR extracted from cerebral cortex of CD-1 albino mouse incubated for 90 mins by liquid scintillation counter analysis; format: cell membranes, Membranes
[18] = tested on: Mus musculus; assay: Anxiolytic activity in CD-1 mouse assessed as time in light at 1 mg/kg treated for 30 mins by light/dark box test (reference value: 112.1 +/- 10.9 sec); format: functional; conditions: 0.5 h
[19] = tested on: Mus musculus; assay: Improvement in learning and memory in CD-1 mouse assessed as time taken for training session at 1 mg/kg, po by passive avoidance test (reference value: 15.6 +/- 3.2 sec); format: functional
[20] = tested on: Mus musculus; assay: Improvement in learning and memory in CD-1 mouse assessed as time taken for retention session at 1 mg/kg, po by passive avoidance test (reference value: 15.6 +/- 3.2 sec); format: functional
[21] = tested on: Mus musculus; assay: Improvement in learning and memory in CD-1 mouse assessed as difference in time taken for training and retention session at 1 mg/kg, po by passive avoidance test (reference value: 76.8 sec); format: functional

Structure (SMILES): CCOC(=O)c1ncn2c1c(C)c(C(=O)NCCCCCCCNC(=O)OC(C)(C)C)c1ccccc12
- pKi [1]: 8.19
- pKi [2]: 7.21
- pKi [3]: 7.51
- pKi [4]: 7.48

Structure (SMILES): CCOC(=O)c1ncn2c1c(C)c(C(=O)NCCCCCCNC(=O)OC(C)(C)C)c1ccccc12
- pKi [1]: 7.46
- pKi [2]: 7.19
- pKi [3]: 8.00
- pKi [4]: 7.85
- Time [5]: 24.2 min
- Time [6]: 43.3 min
- Time [7]: 109.7 s
- Time [8]: 144.7 s
- Time [9]: 5.1 min
- Time [10]: 3.3 min
- Time [11]: 1.8 min
- Time [12]: 0.8 min
- Time [13]: 0.2 min
- Time [14]: 18.1 s
- Time [15]: 95.5 s
- Time [16]: 77.4 s

Structure (SMILES): CCOC(=O)c1ncn2c1c(C)c(C(=O)NCCCCCCCCNC(=O)c1c(C)c3c(C(=O)OCC)ncn3c3ccccc13)c1ccccc12
- pKi [1]: 7.28
- pKi [2]: 10.30
- pKi [3]: 7.19
- pKi [4]: 7.25
- Time [5]: 20.7 min
- Time [6]: 41.8 min
- Time [7]: 96.7 s
- Time [8]: 173.4 s
- Time [9]: 4.5 min
- Time [10]: 3 min
- Time [11]: 1.4 min
- Time [12]: 0.7 min
- Time [13]: 0.2 min
- Time [14]: 14.8 s
- Time [15]: 91.8 s
- Time [16]: 77 s

Structure (SMILES): CCOC(=O)c1ncn2c1c(C)c(C(=O)NCCCCCCNC(=O)c1c(C)c3c(C(=O)OCC)ncn3c3ccccc13)c1ccccc12
- pKi [1]: 7.22
- pKi [2]: 10.66
- pKi [3]: 7.13
- pKi [4]: 7.35
- Time [5]: 22.8 min
- Time [6]: 40.5 min
- Time [7]: 114.3 s
- Time [8]: 166.2 s
- Time [9]: 4.9 min
- Time [10]: 3.2 min
- Time [11]: 1.9 min
- Time [12]: 0.7 min
- Time [13]: 0.1 min
- Time [14]: 15.3 s
- Time [15]: 86.1 s
- Time [16]: 70.8 s

Structure (SMILES): CCOC(=O)c1ncn2c1c(C)c(C(=O)NCCOCCOCCNC(=O)c1c(C)c3c(C(=O)OCC)ncn3c3ccccc13)c1ccccc12
- pKi [17]: 7.74
- pKi [3]: 6.89
- pKi [4]: 7.00

Structure (SMILES): CCOC(=O)c1ncn2c1c(C)c(C(=O)NCCOCCOCCOCCOCCOCCOCCOCCNC(=O)OC(C)(C)C)c1ccccc12
- pKi [17]: 9.18
- pKi [3]: 7.38
- pKi [4]: 7.20

Structure (SMILES): CCOC(=O)c1ncn2c1c(C)c(C(=O)NCCCCCCCNC(=O)c1c(C)c3c(C(=O)OCC)ncn3c3ccccc13)c1ccccc12
- pKi [1]: 7.92
- pKi [2]: 12.00
- pKi [3]: 7.13
- pKi [4]: 7.13

Structure (SMILES): CCOC(=O)c1ncn2c1c(C)c(C(=O)NCCCCCCCCNC(=O)OC(C)(C)C)c1ccccc12
- pKi [1]: 7.29
- pKi [2]: 11.30
- pKi [3]: 7.41
- pKi [4]: 7.38

Structure (SMILES): CCOC(=O)c1ncn2c1c(C)c(C(=O)NCCOCCOCCOCCOCCOCCOCCOCCNC(=O)c1c(C)c3c(C(=O)OCC)ncn3c3ccccc13)c1ccccc12
- pKi [17]: 7.39
- pKi [3]: 6.61
- pKi [4]: 6.68

Structure (SMILES): CCOC(=O)c1ncn2c1c(C)c(C(=O)NCCOCCOCCNC(=O)OC(C)(C)C)c1ccccc12
- pKi [17]: 7.92
- pKi [3]: 6.21
- pKi [4]: 6.40

Structure (SMILES): CN1C(=O)CN=C(c2ccccc2)c2cc(Cl)ccc21 [DIAZEPAM]
- pKi [1]: 8.46
- Time [18]: 174.9 s
- Time [19]: 17.4 s
- Time [20]: 61 s
- Time [21]: 43.6 s

Structure (SMILES): CCOC(=O)c1ncn2c1CN(C)C(=O)c1cc(F)ccc1-2 [FLUMAZENIL]
- pKi [1]: 8.89
